For series [1], the target named is human PKR1 (Homo sapiens, UniProt Q8TCW9). The series can be described thus: Competition cell-binding assay with ^125I-MIT-1 on CHO-PKR1 cells. Particulars: PC-10 binding IC50 vs PC-7 functional IC50 (33 nM).
Series [2] concerns CHO-PKR1 cells. The series can be described thus: Cell uptake, internalization and efflux of ^18F-PC-10. Type of series: cell-based, Chinese hamster.
The test system of series [3] is CFA-induced inflamed paw (PKR1-expressing). The series can be described thus: Small-animal PET of CFA-induced inflammatory pain model. It is filed as in vivo, C57BL/6 mice.
Series [4] in a line: Ex vivo biodistribution in CFA-treated mice. On the set-up: species or system C57BL/6 mice. Particulars: 2 h after injection.

Sequence of human PKR1 (Q8TCW9 whole entry): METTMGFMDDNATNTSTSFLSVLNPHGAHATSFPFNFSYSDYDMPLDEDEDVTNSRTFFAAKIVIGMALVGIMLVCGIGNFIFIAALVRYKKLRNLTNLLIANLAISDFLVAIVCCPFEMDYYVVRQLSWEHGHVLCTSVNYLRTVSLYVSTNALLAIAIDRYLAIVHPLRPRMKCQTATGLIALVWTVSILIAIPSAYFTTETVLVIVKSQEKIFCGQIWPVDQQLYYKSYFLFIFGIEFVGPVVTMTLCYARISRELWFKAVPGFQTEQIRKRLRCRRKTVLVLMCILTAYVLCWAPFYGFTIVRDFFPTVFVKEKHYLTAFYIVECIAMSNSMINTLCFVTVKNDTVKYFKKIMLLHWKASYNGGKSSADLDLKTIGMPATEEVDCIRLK

On to `COc1ccc(Cn2c(NCCNC(=N)NC(=O)c3ccc(F)cc3)nc(=O)n(Cc3ccc(F)cc3)c2=O)cc1` [PC-10, N-(4-fluoro-benzoyl)-N′-{2-[5-(4-fluoro-benzyl)-1-(4-methoxy-benzyl)-4,6-dioxo-1,4,5,6-tetrahydro-[1,3,5]triazin-2-ylamino]-ethyl}-guanidine], for which the “binding affinity to PKR1 lower than functional IC50 of PC-7” value in series [1] is listed as 3 fold.

`COc1ccc(Cn2c(NCCNC(=N)NC(=O)c3ccc([18F])cc3)nc(=O)n(Cc3ccc(F)cc3)c2=O)cc1` [^18F-PC-10, N-(4-^18F-fluoro-benzoyl)-N′-{2-[5-(4-fluoro-benzyl)-1-(4-methoxy-benzyl)-4,6-dioxo-1,4,5,6-tetrahydro-[1,3,5]triazin-2-ylamino]-ethyl}-guanidine]: the “time at which cell uptake reached a plateau” value in series [2] (37°C) came out at 0.5 h. For the same molecule, the “time at which internalization reached a plateau” value in series [2] (37°C, stable up to 2 h) came out at 0.5 h. The “part of observed uptake due to internalization” value in series [2] (acid buffer pH 2.8 wash) is reported as “Approximately half”. Further, the “time after medium replacement at which half of the activity was unbound (efflux)” value in series [2] (after 2 h loading) was at most 15 min. For the same molecule, the “time at which efflux reached a plateau” value in series [2] (after medium replacement) worked out at 1 h. The “decrease of uptake in inflamed paw by blocking” value in series [3] (1 h after injection, coinjected with excess PC-7) is reported as “approximately 70%”. Moreover, the “uptake in control paw” value in series [3] (PET, 2 h after injection) is listed as 0.13 ± 0.01 %ID/g. For the same molecule, in series [4], the activity in blood is recorded as 0.22 ± 0.05 %ID/g, the uptake in bone was 0.69 ± 0.12 %ID/g, the uptake in kidneys worked out at 5.26 ± 1.06 %ID/g and the uptake in liver is reported as 3.80 ± 1.14 %ID/g. In addition, in series [4], the “uptake in salivary gland” value was 3.05 ± 1.10 %ID/g.

Source of the values: paper PMC3629974 (Journal of nuclear medicine : official publication, Society …, 2011).
